≈ marks a conversion by molar mass, not a printed value.
Tests used:
[1] = test system: Proteus mirabilis; assay: Antimicrobial activity against Proteus mirabilis after 18 to 20 hr by agar dilution method; format: functional
[2] = test system: Shigella sonnei; assay: Antimicrobial activity against Shigella sonnei after 18 to 20 hr by agar dilution method; format: functional
[3] = test system: Morganella morganii; assay: Antimicrobial activity against Morganella morganii after 18 to 20 hr by agar dilution method; format: functional
[4] = test system: Klebsiella pneumoniae; assay: Antimicrobial activity against Klebsiella pneumoniae subsp. ozaenae after 18 to 20 hr by agar dilution method; format: functional
[5] = test system: Plesiomonas; assay: Antimicrobial activity against Plesiomonas after 18 to 20 hr by agar dilution method; format: functional
[6] = test system: Mycobacterium tuberculosis; assay: Antimycobacterial activity against Mycobacterium tuberculosis H37Rv ATCC 27294 at 6.25 ug/ml by MABA; format: functional
[7] = test system: Priestia megaterium; assay: Antimicrobial activity against Bacillus megaterium after 18 to 20 hr by agar dilution method; format: functional
[8] = test system: Salmonella paratyphi; assay: Antimicrobial activity against Salmonella enterica subsp. enterica serovar Paratyphi A after 18 to 20 hr by agar dilution method; format: functional
[9] = test system: Vibrio fluvialis; assay: Antimicrobial activity against Vibrio fluvialis after 18 to 20 hr by agar dilution method; format: functional
[10] = test system: Escherichia coli; assay: Antimicrobial activity against Escherichia coli NCTC 10418 after 18 to 20 hr by agar dilution method; format: functional
[11] = test system: Salmonella typhi; assay: Antimicrobial activity against Salmonella enterica subsp. enterica serovar Typhi after 18 to 20 hr by agar dilution method; format: functional
[12] = test system: Edwardsiella tarda; assay: Antimicrobial activity against Edwardsiella tarda after 18 to 20 hr by agar dilution method; format: functional
[13] = test system: Vibrio parahaemolyticus; assay: Antimicrobial activity against Vibrio parahaemolyticus after 18 to 20 hr by agar dilution method; format: functional
[14] = test system: Salmonella typhimurium; assay: Antimicrobial activity against Salmonella enterica subsp. enterica serovar Typhimurium after 18 to 20 hr by agar dilution method; format: functional
[15] = test system: Vibrio mimicus; assay: Antimicrobial activity against Vibrio mimicus after 18 to 20 hr by agar dilution method; format: functional
[16] = Cytotoxicity against Homo sapiens (human) CEM cells after 5 days by MTT assay; format: cell-based; details: CEM cells (CCRF-CEM)
[17] = test system: Citrobacter freundii; assay: Antimicrobial activity against Citrobacter freundii after 18 to 20 hr by agar dilution method; format: functional
[18] = test system: Klebsiella pneumoniae; assay: Antimicrobial activity against Klebsiella pneumoniae after 18 to 20 hr by agar dilution method; format: functional
[19] = test system: Vibrio cholerae; assay: Antimicrobial activity against Vibrio cholerae 0139 after 18 to 20 hr by agar dilution method; format: functional; details: 139
[20] = test system: Human immunodeficiency virus 1; assay: Antiviral activity against Human immunodeficiency virus 1 IIIB infected MT4 cells assessed as protection against viral infection after 5 days by MTT assay; format: functional; set-up: concentration or dose not given beside the values
[21] = test system: Human immunodeficiency virus 1; assay: Antiviral activity against Human immunodeficiency virus 1 IIIB infected CEM cells assessed as protection against viral infection after 6 days by XTT assay; format: functional, CCRF-CEM; set-up: concentration or dose not given beside the values
[22] = test system: Pseudomonas aeruginosa; assay: Antimicrobial activity against Pseudomonas aeruginosa after 18 to 20 hr by agar dilution method; format: functional
[23] = test system: Staphylococcus aureus; assay: Antimicrobial activity against Staphylococcus aureus after 18 to 20 hr by agar dilution method; format: functional
[24] = test system: Enterobacter; assay: Antimicrobial activity against Enterobacter after 18 to 20 hr by agar dilution method; format: functional
[25] = test system: Proteus vulgaris; assay: Antimicrobial activity against Proteus vulgaris after 18 to 20 hr by agar dilution method; format: functional
[26] = test system: Shigella boydii; assay: Antimicrobial activity against Shigella boydii after 18 to 20 hr by agar dilution method; format: functional
[27] = Cytotoxicity against Homo sapiens (human) MT4 cells after 5 days by MTT assay; format: cell-based
[28] = test system: Vibrio cholerae; assay: Antimicrobial activity against Vibrio cholerae 01 after 18 to 20 hr by agar dilution method; format: functional; details: 1
[29] = test system: Human immunodeficiency virus 1; assay: Antiviral activity against Human immunodeficiency virus 1 IIIB infected MT4 cells assessed as inhibition of virus-induced cytopathicity after 5 days by MTT assay; format: functional, organism-based; details: MT4, 120 h
[30] = test system: Salmonella enteritidis; assay: Antimicrobial activity against Salmonella enterica subsp. enterica serovar Enteritidis after 18 to 20 hr by agar dilution method; format: functional
[31] = test system: Human immunodeficiency virus 1; assay: Antiviral activity against Human immunodeficiency virus 1 IIIB infected CEM cells assessed as inhibition of virus-induced cytopathicity after 6 days by XTT assay; format: functional, organism-based; details: CCRF-CEM, 144 h
[32] = test system: Hepatitis C virus; assay: Antiviral activity against Hepatitis C virus BM4-5 infected in Huh7 cells assessed as inhibition of viral RNA replication by phosphor screening method; format: functional, Hepacivirus hominis, Huh-7
[33] = Cytotoxicity against Homo sapiens (human) HuH7 cells assessed as cell growth at 50 ug/ml after 3 days by Neutral red assay; format: cell-based, Huh-7; details: read-out: Activity

With `COc1cc(Cc2cnc(/N=C3\C(=O)N(CN4CCC(C)CC4)c4ccc(Cl)cc43)nc2N)cc(OC)c1OC` the MIC [1] was 1250 µg/mL (≈ 2210 µM), the MIC [2] was 1250 µg/mL (≈ 2210 µM) and the MIC [3] was 1250 µg/mL (≈ 2210 µM). It also gave an MIC [4] of 625 µg/mL (≈ 1110 µM), an MIC [5] of 39.1 µg/mL (≈ 69.1 µM) and an inhibition at 6.25 µg/mL [6] of 15%. The MIC [7] was 625 µg/mL (≈ 1110 µM), the MIC [8] was 312 µg/mL (≈ 553 µM) and the MIC [9] was 1250 µg/mL (≈ 2210 µM). For the same compound, the MIC [10] was 1250 µg/mL (≈ 2210 µM), the MIC [11] was 1250 µg/mL (≈ 2210 µM) and the MIC [12] was 1250 µg/mL (≈ 2210 µM). For the same compound, the MIC [13] was 2.44 µg/mL (≈ 4.32 µM), the MIC [14] was 1250 µg/mL (≈ 2210 µM) and the MIC [15] was 1.22 µg/mL (≈ 2.16 µM). For the same compound, the CC50 at 120 h [16] was 46.3 µg/mL (≈ 81.9 µM), the MIC [17] was 312 µg/mL (≈ 553 µM) and the MIC [18] was 1250 µg/mL (≈ 2210 µM). For the same compound, the MIC [19] was 1250 µg/mL (≈ 2210 µM), the Activity [20] was 41.7% and the Activity [21] was 22.07%. The MIC [22] was 1250 µg/mL (≈ 2210 µM), the MIC [23] was 1250 µg/mL (≈ 2210 µM) and the MIC [24] was 1250 µg/mL (≈ 2210 µM). For the same compound, the MIC [25] was 1250 µg/mL (≈ 2210 µM), the MIC [26] was 4.88 µg/mL (≈ 8.64 µM) and the CC50 at 120 h [27] was 67.4 µg/mL (≈ 119 µM). The MIC [28] was 4.88 µg/mL (≈ 8.64 µM), the EC50 [29] was over 67.4 µg/mL and the MIC [30] was 1250 µg/mL (≈ 2210 µM). For the same compound, the EC50 [31] was over 46.3 µg/mL, the “inhibition (INH)” value [32] was 81% and the viability at 72 h, 50 ug/ml [33] was 108%.

With `COc1cc(Cc2cnc(/N=C3\C(=O)N(CN4CCN(Cc5ccccc5)CC4)c4ccc(Cl)cc43)nc2N)cc(OC)c1OC` the MIC [1] was 625 µg/mL (≈ 973 µM), the MIC [2] was 1250 µg/mL (≈ 1950 µM) and the MIC [3] was 625 µg/mL (≈ 973 µM). The MIC [4] was 1250 µg/mL (≈ 1950 µM), the MIC [5] was 39.1 µg/mL (≈ 60.8 µM) and the inhibition at 6.25 µg/mL [6] was 50%. It also gave an MIC [7] of 625 µg/mL (≈ 973 µM), an MIC [8] of 625 µg/mL (≈ 973 µM) and an MIC [9] of 625 µg/mL (≈ 973 µM). It also gave an MIC [10] of 625 µg/mL (≈ 973 µM), an MIC [11] of 625 µg/mL (≈ 973 µM) and an MIC [12] of 625 µg/mL (≈ 973 µM). For the same compound, the MIC [13] was 9.76 µg/mL (≈ 15.2 µM), the MIC [14] was 625 µg/mL (≈ 973 µM) and the MIC [15] was 2.44 µg/mL (≈ 3.8 µM). It also gave a CC50 at 120 h [16] of 94.7 µg/mL (≈ 147 µM), an MIC [17] of 625 µg/mL (≈ 973 µM) and an MIC [18] of 625 µg/mL (≈ 973 µM). For the same compound, the MIC [19] was 625 µg/mL (≈ 973 µM), the Activity [20] was 41.8% and the Activity [21] was 22.33%. It also gave an MIC [22] of 1250 µg/mL (≈ 1950 µM), an MIC [23] of 625 µg/mL (≈ 973 µM) and an MIC [24] of 625 µg/mL (≈ 973 µM). The MIC [25] was 625 µg/mL (≈ 973 µM), the MIC [26] was 39.1 µg/mL (≈ 60.8 µM) and the CC50 at 120 h [27] was 36.1 µg/mL (≈ 56.2 µM). The MIC [28] was 4.88 µg/mL (≈ 7.6 µM), the EC50 [29] was over 36.1 µg/mL and the MIC [30] was 625 µg/mL (≈ 973 µM). The EC50 [31] was over 94.7 µg/mL, the “inhibition (INH)” value [32] was 66% and the viability at 72 h, 50 ug/ml [33] was 79%.

In the case of `COc1c(N2CCNC(C)C2)c(F)cc2c(=O)c(C(=O)O)cn(C3CC3)c12` (stereo not given) [GATIFLOXACIN], the MIC [1] is reported as 0.02 µg/mL (≈ 0.0533 µM), the MIC [2] is reported as 0.08 µg/mL (≈ 0.213 µM) and the MIC [3] is reported as 0.02 µg/mL (≈ 0.0533 µM). The MIC [4] was 0.08 µg/mL (≈ 0.213 µM), the MIC [5] was 2.44 µg/mL (≈ 6.5 µM) and the MIC [7] was 0.08 µg/mL (≈ 0.213 µM). The MIC [8] was 0.02 µg/mL (≈ 0.0533 µM), the MIC [9] was 0.02 µg/mL (≈ 0.0533 µM) and the MIC [10] was 0.02 µg/mL (≈ 0.0533 µM). It also gave an MIC [11] of 0.02 µg/mL (≈ 0.0533 µM), an MIC [12] of 0.02 µg/mL (≈ 0.0533 µM) and an MIC [13] of 9.77 µg/mL (≈ 26 µM). The MIC [14] was 0.02 µg/mL (≈ 0.0533 µM), the MIC [15] was 0.15 µg/mL (≈ 0.4 µM) and the MIC [17] was 0.08 µg/mL (≈ 0.213 µM). The MIC [18] was 0.08 µg/mL (≈ 0.213 µM), the MIC [19] was 0.02 µg/mL (≈ 0.0533 µM) and the MIC [22] was 0.15 µg/mL (≈ 0.4 µM). The MIC [23] was 0.02 µg/mL (≈ 0.0533 µM), the MIC [24] was 0.02 µg/mL (≈ 0.0533 µM) and the MIC [25] was 0.02 µg/mL (≈ 0.0533 µM). The MIC [26] was 1.22 µg/mL (≈ 3.25 µM), the MIC [28] was 0.02 µg/mL (≈ 0.0533 µM) and the MIC [30] was 0.02 µg/mL (≈ 0.0533 µM).
